Among the test systems are A549; LOX IMVI; EKVX; UO-31; HOP-62; SF-295; 786-0; NCI/ADR-RES; HL-60; CAKI-1; TK-10; NCI-H226; MDA-N; T47D; KM12; UACC-257; OVCAR-8; MCF7.
Test in all cases: NCI-60 cell line screen, 48 h

The values below come from ChEMBL document CHEMBL1201862, “PubChem BioAssay data set” (2004).

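Grown in 96-well plates, cells were treated for 48 hours with each compound at five concentrations. Insufficient inhibition: endpoint recorded as highest concentration tested. GI50 marks 50% less growth.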 Activity calls are given as the source filed them. No stated cut-off is given here; in the data, active = GI50 up to about 1.1 µM and inactive = higher.

Consider `N=C(N)N/N=C\c1c(-c2ccccc2)nc2sccn12`, for which the GI50 in the assay on A549 is 17.5 µM (inactive); in the assay with LOX IMVI, 16.3 µM (inactive); in the assay with EKVX, 14.5 µM (inactive); in the assay with UO-31, 17.8 µM (inactive); in the assay on HOP-62, 15.7 µM (inactive); with SF-295 it was 14.7 µM (inactive). For the same molecule, the GI50 is 14.1 µM (inactive) with 786-0; 18.2 µM (inactive) with NCI/ADR-RES; 25.8 µM (inactive) in the assay with HL-60; 16 µM (inactive) with CAKI-1; 17.4 µM (inactive) in the assay with TK-10; 17.6 µM (inactive) with NCI-H226. The GI50 with MDA-N is 14.1 µM (inactive); in the assay on T47D, 14.3 µM (inactive); with KM12, 14.2 µM (inactive); in the assay on UACC-257, 13.4 µM (inactive); in the assay with OVCAR-8 it was 16.5 µM (inactive).
As to `Cc1ccc(S(=O)(=O)NNC(=O)Nc2cccc(C(F)(F)F)c2)cc1`, the GI50 is > 100 µM (inactive) with A549; > 100 µM (inactive) in the assay with EKVX; 99.1 µM (inactive) with UO-31; > 100 µM (inactive) in the assay on HOP-62; > 100 µM (inactive) with SF-295; > 100 µM (inactive) with 786-0. Moreover, the GI50 is 61.8 µM (inactive) in the assay with NCI/ADR-RES; 97.1 µM (inactive) with MCF7; > 100 µM (inactive) with HL-60; > 100 µM (inactive) with CAKI-1; > 100 µM (inactive) in the assay on TK-10; 44.7 µM (inactive) with NCI-H226. Besides, the GI50 with MDA-N was > 100 µM (inactive); in the assay with T47D it was > 100 µM (inactive); with KM12 it was 57.3 µM (inactive); with UACC-257 it was 57.9 µM (inactive); in the assay with OVCAR-8 it was > 100 µM (inactive).
Turning to `C/C=C/OC1C(C2COC(C)(C)O2)OC2OC(C)(C)OC21` (stereo not drawn), the GI50 with A549, in the assay with LOX IMVI, in the assay on EKVX, with UO-31, in the assay with HOP-62 and with SF-295 was > 100 µM (inactive) in each case. Further, the GI50 in the assay on 786-0, with NCI/ADR-RES, in the assay with MCF7, in the assay with HL-60, in the assay on CAKI-1 and with TK-10 was > 100 µM (inactive) each time. In addition, the GI50 in the assay on MDA-N, with T47D, in the assay on UACC-257 and in the assay with OVCAR-8 was > 100 µM (inactive) each time.
As to `CC1CC(C)C(O)C(C2CC(CC(=O)NC3CCCCC3)CC(=O)O2)C1` (stereo not drawn), the GI50 in the assay on A549, in the assay on LOX IMVI, in the assay with EKVX, with HOP-62, in the assay on SF-295 and in the assay with 786-0 was > 100 µM (inactive) throughout. The GI50 with NCI/ADR-RES, in the assay on MCF7, in the assay with HL-60, in the assay on CAKI-1, in the assay with TK-10 and with NCI-H226 was > 100 µM (inactive) throughout. Moreover, the GI50 in the assay on MDA-N, in the assay with T47D, with KM12, in the assay with UACC-257 and with OVCAR-8 was > 100 µM (inactive) in each case.
With `CC1(C)N=c2c(ncn2CCO)=C(C(N)=O)N1`, the GI50 in the assay with A549, in the assay on LOX IMVI, in the assay on EKVX, with HOP-62, in the assay on SF-295 and in the assay with 786-0 was > 100 µM (inactive) each time. For the same molecule, the GI50 with NCI/ADR-RES, in the assay with MCF7, with HL-60, in the assay with CAKI-1, with TK-10 and with NCI-H226 was > 100 µM (inactive) in each case. For the same molecule, the GI50 with MDA-N, in the assay on T47D, in the assay on KM12, with UACC-257 and with OVCAR-8 was > 100 µM (inactive) in each case.
With `CC1=NN(C(=O)Cc2ccccc2)C(=O)/C1=C\c1ccco1`, the GI50 in the assay with A549, with LOX IMVI, with EKVX, in the assay on UO-31, with HOP-62 and in the assay on SF-295 was > 100 µM (inactive) throughout. The GI50 with 786-0, with HL-60, in the assay on CAKI-1, with TK-10, with NCI-H226 and with KM12 was > 100 µM (inactive) each time. Further, the GI50 in the assay on UACC-257 and in the assay on OVCAR-8 was > 100 µM (inactive) in each case.
`CC(=O)OC12c3ccccc3-c3ccccc3C1C1C(=O)OC(=O)C12` (stereo not drawn): the GI50 in the assay on LOX IMVI, in the assay with EKVX, in the assay on UO-31, in the assay on HOP-62, with SF-295 and in the assay with 786-0 was > 10 µM (inactive) throughout. Also, the GI50 in the assay on NCI/ADR-RES, in the assay with MCF7, with HL-60, in the assay on CAKI-1, with TK-10 and in the assay on NCI-H226 was > 10 µM (inactive) throughout. The GI50 in the assay on MDA-N, with T47D, with KM12, with UACC-257 and with OVCAR-8 was > 10 µM (inactive) each time.
For the molecule `NCCSc1nc(N)c2ncn(C3OC(CO)C(O)C3O)c2n1` (stereo not drawn), the GI50 in the assay on A549, with LOX IMVI, in the assay with UO-31, in the assay on HOP-62, in the assay with SF-295 and with 786-0 was > 100 µM (inactive) each time. Further, the GI50 with HL-60, in the assay on CAKI-1, in the assay with TK-10, in the assay with NCI-H226, with KM12 and with UACC-257 was > 100 µM (inactive) each time. Moreover, the GI50 with OVCAR-8 is > 100 µM (inactive).
For the molecule `CCOC(=O)/C=C(/C(=O)OCC)n1cc(C)c(=O)n(Cc2cn(CCCCOC(C)=O)nn2)c1=O`, the GI50 with A549 is 27 µM (inactive); with LOX IMVI it was 17.7 µM (inactive); in the assay with EKVX, 10.7 µM (inactive); with UO-31, 15.1 µM (inactive); in the assay with HOP-62, 33.6 µM (inactive); in the assay with SF-295, 33.1 µM (inactive). Further, the GI50 in the assay on 786-0 was 6.49 µM (inactive); in the assay with NCI/ADR-RES, 23.6 µM (inactive); with MCF7, 6.3 µM (inactive); in the assay with CAKI-1, 2.84 µM (inactive); in the assay on TK-10, 4.67 µM (inactive); in the assay on NCI-H226, 18.4 µM (inactive). The GI50 with MDA-N is 35 µM (inactive); in the assay on T47D, 9.46 µM (inactive); with KM12, 15.5 µM (inactive); in the assay with UACC-257, 19.8 µM (inactive); in the assay on OVCAR-8 it was 12.9 µM (inactive).
`CN(C)CCNC(=O)c1cccc2c1nc(-c1ccncc1)c1ccccc12`: the GI50 in the assay with A549 was 0.552 µM (active); in the assay on LOX IMVI, 1.35 µM (inactive); in the assay with EKVX, 2.47 µM (inactive); with UO-31, 1.63 µM (inactive); in the assay with HOP-62, 3.78 µM (inactive); in the assay with SF-295, 2.85 µM (inactive). Moreover, the GI50 was 3.66 µM (inactive) with 786-0; 1.36 µM (inactive) with HL-60; 1.81 µM (inactive) in the assay on CAKI-1; 2.21 µM (inactive) in the assay on TK-10; 1.95 µM (inactive) in the assay on NCI-H226; 5.28 µM (inactive) in the assay with KM12. Also, the GI50 with UACC-257 is 3.01 µM (inactive); in the assay with OVCAR-8, 3.06 µM (inactive).
Regarding `CCCN(CCC)C(=S)N/N=C/c1cccc(C)n1`, the GI50 is 0.108 µM (active) in the assay on A549; 0.141 µM (active) in the assay with LOX IMVI; 0.552 µM (active) with EKVX; 0.177 µM (active) with UO-31; 0.195 µM (active) in the assay on HOP-62; 0.258 µM (active) with SF-295. The GI50 in the assay with 786-0 is 0.0237 µM (active); with NCI/ADR-RES, < 0.01 µM (active); with MCF7 it was < 0.01 µM (active); with HL-60, < 0.01 µM (active); with CAKI-1, 0.382 µM (active); with TK-10 it was 0.142 µM (active). For the same molecule, the GI50 with NCI-H226 was 0.129 µM (active); in the assay with MDA-N, 0.621 µM (active); with KM12, 0.107 µM (active); in the assay on UACC-257, < 0.01 µM (active); with OVCAR-8, 0.0217 µM (active).
With `O=C1CCc2ccccc2O1` [DIHYDROCOUMARIN], the GI50 in the assay with LOX IMVI, in the assay on EKVX, with UO-31, in the assay on HOP-62, in the assay on SF-295 and in the assay with 786-0 was > 100 µM (inactive) each time. Also, the GI50 with NCI/ADR-RES, in the assay with MCF7, in the assay with HL-60, with CAKI-1, with TK-10 and with NCI-H226 was > 100 µM (inactive) each time. Also, the GI50 in the assay with MDA-N is 53.1 µM (inactive); in the assay on T47D, > 100 µM (inactive); with KM12 it was > 100 µM (inactive); in the assay on UACC-257 it was > 100 µM (inactive); in the assay with OVCAR-8 it was > 100 µM (inactive).
